Legend:
Assay in all cases: KINOMEscan competition binding
Conditions in all cases: compound 10.0 µM
ADCK3 (human) = ADCK3 (human) (UniProt Q8NI60)
AURKC (human) = AURKC (human) (UniProt Q9UQB9)
BRSK1 (human) = BRSK1 (human) (UniProt Q8TDC3)
CAMK2D (human) = CAMK2D (human) (UniProt Q13557)
CDC42BPA (human) = CDC42BPA (human) (UniProt Q5VT25)
CDK17 (human) = CDK17 (human) (UniProt Q00537)
CDK9 (human) = CDK9 (human) (UniProt P50750)
CLK3 (human) = CLK3 (human) (UniProt P49761)
DDR2 (human) = DDR2 (human) (UniProt Q16832)
[1] = tested on: EGFR (human), P00533 [G719C]
[2] = tested on: FGFR3 (human), P22607 [G697C]
FGFR3 (human), P22607 [G697C], sequence (P22607 whole entry G697C, looked up): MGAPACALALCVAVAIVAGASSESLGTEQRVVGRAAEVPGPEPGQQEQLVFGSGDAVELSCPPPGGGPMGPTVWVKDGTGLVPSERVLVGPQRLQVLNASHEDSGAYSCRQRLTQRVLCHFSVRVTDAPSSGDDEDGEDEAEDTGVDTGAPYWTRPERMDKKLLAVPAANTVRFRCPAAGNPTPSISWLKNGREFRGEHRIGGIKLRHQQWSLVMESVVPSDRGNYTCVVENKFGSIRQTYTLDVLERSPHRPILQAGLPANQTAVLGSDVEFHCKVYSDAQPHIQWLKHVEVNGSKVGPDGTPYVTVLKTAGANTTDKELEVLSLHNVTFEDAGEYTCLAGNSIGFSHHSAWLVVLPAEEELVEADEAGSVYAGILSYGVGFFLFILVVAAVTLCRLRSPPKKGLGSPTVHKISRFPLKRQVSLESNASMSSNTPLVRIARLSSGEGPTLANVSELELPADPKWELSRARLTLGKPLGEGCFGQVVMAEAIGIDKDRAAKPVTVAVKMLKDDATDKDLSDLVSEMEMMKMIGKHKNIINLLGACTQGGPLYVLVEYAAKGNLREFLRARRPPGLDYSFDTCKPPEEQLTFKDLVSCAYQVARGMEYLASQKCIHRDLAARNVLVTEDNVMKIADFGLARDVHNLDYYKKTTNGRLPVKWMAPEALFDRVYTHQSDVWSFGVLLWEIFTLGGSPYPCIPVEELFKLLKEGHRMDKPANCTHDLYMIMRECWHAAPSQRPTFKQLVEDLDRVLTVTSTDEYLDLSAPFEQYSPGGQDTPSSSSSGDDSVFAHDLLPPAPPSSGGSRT

FLT3 (human) = FLT3 (human) (UniProt P36888)
[3] = tested on: FLT3 (human), P36888 [D835Y]
GRK1 (human) = GRK1 (human) (UniProt Q15835)
GRK4 (human) = GRK4 (human) (UniProt P32298)
MAP3K10 (human) = MAP3K10 (human) (UniProt Q02779)
MAP3K12 (human) = MAP3K12 (human) (UniProt Q12852)
MAPK3 (human) = MAPK3 (human) (UniProt P27361)
MARK1 (human) = MARK1 (human) (UniProt Q9P0L2)
MYO3A (human) = MYO3A (human) (UniProt Q8NEV4)
PAK1 (human) = PAK1 (human) (UniProt Q13153)
PDGFRB (human) = PDGFRB (human) (UniProt P09619)
PDGFRB (human), sequence (P09619 whole entry, looked up): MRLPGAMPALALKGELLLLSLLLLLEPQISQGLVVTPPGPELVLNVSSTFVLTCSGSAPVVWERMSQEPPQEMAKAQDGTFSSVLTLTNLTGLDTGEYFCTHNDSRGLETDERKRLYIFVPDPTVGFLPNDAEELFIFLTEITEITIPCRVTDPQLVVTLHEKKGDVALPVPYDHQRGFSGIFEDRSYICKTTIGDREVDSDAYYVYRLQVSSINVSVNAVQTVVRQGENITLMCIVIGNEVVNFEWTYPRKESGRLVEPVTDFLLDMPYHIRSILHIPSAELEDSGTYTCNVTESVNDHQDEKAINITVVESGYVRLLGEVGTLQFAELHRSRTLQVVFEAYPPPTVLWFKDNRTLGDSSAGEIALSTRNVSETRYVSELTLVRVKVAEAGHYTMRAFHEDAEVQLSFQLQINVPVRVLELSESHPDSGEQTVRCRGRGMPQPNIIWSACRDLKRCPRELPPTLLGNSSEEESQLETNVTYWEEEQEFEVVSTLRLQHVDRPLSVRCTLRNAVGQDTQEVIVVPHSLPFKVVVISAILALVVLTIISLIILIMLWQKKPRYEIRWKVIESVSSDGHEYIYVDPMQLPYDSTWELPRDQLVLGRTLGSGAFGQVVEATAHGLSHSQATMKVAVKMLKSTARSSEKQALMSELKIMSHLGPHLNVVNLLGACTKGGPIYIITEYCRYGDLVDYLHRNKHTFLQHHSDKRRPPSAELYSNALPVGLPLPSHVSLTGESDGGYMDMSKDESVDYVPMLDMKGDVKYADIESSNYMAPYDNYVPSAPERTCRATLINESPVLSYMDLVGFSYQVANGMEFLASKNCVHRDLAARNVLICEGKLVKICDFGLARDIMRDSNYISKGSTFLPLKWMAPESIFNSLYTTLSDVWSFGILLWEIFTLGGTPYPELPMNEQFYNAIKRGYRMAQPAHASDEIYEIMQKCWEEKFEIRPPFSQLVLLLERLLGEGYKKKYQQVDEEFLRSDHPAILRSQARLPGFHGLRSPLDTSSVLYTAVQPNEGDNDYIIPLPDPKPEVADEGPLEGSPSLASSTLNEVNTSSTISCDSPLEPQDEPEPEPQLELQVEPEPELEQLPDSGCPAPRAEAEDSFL

PHKG1 (human) = PHKG1 (human) (UniProt Q16816)
PLK4 (human) = PLK4 (human) (UniProt O00444)
PRKAA1 (human) = PRKAA1 (human) (UniProt Q13131)
PRKCE (human) = PRKCE (human) (UniProt Q02156)
PRKCE (human), sequence (Q02156 whole entry, looked up): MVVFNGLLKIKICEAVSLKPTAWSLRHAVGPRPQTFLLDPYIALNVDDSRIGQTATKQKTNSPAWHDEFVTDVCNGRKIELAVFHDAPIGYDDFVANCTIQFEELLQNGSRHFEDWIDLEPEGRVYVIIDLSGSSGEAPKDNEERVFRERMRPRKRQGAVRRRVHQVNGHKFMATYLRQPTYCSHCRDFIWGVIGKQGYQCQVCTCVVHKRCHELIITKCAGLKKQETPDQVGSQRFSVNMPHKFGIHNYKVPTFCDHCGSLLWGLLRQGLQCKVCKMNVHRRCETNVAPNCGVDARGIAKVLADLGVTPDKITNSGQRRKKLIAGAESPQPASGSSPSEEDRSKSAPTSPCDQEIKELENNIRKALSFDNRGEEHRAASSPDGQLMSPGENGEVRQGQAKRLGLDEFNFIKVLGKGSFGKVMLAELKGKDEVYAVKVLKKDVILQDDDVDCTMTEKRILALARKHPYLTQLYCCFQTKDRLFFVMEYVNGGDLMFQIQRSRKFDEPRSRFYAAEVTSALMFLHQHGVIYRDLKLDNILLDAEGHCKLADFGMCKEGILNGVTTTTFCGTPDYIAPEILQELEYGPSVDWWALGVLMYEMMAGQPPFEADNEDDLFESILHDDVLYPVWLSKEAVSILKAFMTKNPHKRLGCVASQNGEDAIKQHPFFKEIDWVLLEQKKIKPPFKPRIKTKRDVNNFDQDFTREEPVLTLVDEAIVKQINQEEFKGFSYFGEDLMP

PRKCH (human) = PRKCH (human) (UniProt P24723)
PRKD1 (human) = PRKD1 (human) (UniProt Q15139)
PRKD1 (human), sequence (Q15139 whole entry, looked up): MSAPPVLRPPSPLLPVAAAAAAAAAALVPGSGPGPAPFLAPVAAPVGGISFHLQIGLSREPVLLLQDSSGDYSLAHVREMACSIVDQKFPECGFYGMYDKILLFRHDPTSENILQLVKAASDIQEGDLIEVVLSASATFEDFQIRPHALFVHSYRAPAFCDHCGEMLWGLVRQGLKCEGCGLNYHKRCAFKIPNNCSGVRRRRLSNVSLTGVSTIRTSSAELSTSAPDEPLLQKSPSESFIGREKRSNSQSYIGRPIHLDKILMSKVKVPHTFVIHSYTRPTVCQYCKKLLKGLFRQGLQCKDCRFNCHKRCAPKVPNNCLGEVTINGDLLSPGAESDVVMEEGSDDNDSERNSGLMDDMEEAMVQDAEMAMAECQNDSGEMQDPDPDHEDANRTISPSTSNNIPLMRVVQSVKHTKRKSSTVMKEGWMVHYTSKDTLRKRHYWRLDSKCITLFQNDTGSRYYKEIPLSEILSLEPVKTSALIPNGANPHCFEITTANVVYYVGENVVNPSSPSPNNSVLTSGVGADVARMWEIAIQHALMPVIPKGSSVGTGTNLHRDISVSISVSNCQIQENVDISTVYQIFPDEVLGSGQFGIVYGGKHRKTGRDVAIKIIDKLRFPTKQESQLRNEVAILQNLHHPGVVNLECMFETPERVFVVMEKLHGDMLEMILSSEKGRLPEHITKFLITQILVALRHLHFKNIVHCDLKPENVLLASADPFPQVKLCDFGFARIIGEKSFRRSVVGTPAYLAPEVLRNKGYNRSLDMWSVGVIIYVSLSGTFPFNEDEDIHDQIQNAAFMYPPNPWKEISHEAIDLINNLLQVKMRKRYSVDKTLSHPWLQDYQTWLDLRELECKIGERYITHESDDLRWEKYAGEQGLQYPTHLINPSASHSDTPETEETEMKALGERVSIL

RPS6KA1 KD1 (human) = RPS6KA1 KD1 (human) (UniProt Q15418)
STK16 (human) = STK16 (human) (UniProt O75716)
STK35 (human) = STK35 (human) (UniProt Q8TDR2)
STK38 (human) = STK38 (human) (UniProt Q15208)
STK38 (human), sequence (Q15208 whole entry, looked up): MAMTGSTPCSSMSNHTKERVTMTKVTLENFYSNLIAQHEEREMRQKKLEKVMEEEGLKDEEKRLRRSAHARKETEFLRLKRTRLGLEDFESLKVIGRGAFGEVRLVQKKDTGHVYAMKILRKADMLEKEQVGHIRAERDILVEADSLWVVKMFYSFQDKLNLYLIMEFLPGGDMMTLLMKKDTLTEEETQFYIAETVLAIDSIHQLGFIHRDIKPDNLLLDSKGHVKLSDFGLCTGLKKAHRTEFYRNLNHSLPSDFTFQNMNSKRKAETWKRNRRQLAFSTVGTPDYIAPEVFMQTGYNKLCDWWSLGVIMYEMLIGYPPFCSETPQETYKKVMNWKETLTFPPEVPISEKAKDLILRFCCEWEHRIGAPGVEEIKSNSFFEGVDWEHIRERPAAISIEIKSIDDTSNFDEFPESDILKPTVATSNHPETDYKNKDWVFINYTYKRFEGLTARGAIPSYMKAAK

TLK2 (human) = TLK2 (human) (UniProt Q86UE8)
TNNI3K (human) = TNNI3K (human) (UniProt Q59H18)
TNNI3K (human), sequence (Q59H18 whole entry, looked up): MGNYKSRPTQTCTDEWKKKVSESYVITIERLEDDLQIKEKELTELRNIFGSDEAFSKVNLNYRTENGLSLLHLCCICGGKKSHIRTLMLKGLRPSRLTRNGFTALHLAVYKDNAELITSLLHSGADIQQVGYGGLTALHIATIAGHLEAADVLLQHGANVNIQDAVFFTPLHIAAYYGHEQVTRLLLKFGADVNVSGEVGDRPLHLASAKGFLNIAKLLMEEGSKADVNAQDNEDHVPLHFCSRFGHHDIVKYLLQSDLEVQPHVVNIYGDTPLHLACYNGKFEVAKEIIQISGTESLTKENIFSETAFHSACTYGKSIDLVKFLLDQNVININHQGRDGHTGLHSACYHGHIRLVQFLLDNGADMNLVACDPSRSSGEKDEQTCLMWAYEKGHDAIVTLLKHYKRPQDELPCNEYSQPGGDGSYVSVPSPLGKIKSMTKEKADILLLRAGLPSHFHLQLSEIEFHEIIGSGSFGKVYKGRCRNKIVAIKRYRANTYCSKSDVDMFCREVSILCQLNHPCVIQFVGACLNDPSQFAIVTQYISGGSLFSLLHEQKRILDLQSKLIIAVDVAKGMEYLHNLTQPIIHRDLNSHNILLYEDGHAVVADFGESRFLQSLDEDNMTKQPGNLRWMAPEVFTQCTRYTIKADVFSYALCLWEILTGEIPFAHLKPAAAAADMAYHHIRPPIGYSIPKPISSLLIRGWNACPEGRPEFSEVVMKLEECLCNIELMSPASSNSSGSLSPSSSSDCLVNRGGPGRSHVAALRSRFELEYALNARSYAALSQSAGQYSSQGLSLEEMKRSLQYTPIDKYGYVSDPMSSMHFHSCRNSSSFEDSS

TTK (human) = TTK (human) (UniProt P33981)
TXK (human) = TXK (human) (UniProt P42681)
[4] = tested on: LRRK2 (human), Q5S007 [G2019S]
NEK3 (human) = NEK3 (human) (UniProt P51956)
NEK4 (human) = NEK4 (human) (UniProt P51957)

Structure (SMILES)	kinase still bound, per cent of control (ADCK3 (human))	kinase still bound, per cent of control (AURKC (human))	kinase still bound, per cent of control (BRSK1 (human))	kinase still bound, per cent of control (CAMK2D (human))	kinase still bound, per cent of control (CDC42BPA (human))	kinase still bound, per cent of control (CDK17 (human))	kinase still bound, per cent of control (CDK9 (human))	kinase still bound, per cent of control (CLK3 (human))	kinase still bound, per cent of control (DDR2 (human))	kinase still bound, per cent of control [1]	kinase still bound, per cent of control [2]	kinase still bound, per cent of control (FLT3 (human))	kinase still bound, per cent of control [3]	kinase still bound, per cent of control (GRK1 (human))	kinase still bound, per cent of control (GRK4 (human))	kinase still bound, per cent of control (MAP3K10 (human))	kinase still bound, per cent of control (MAP3K12 (human))	kinase still bound, per cent of control (MAPK3 (human))	kinase still bound, per cent of control (MARK1 (human))	kinase still bound, per cent of control (MYO3A (human))	further results
Cc1cn(-c2cc(C(=O)Nc3ccc(C)c(NC(=O)c4ccno4)c3)cc(C(F)(F)F)c2)cn1	100%	100%	100%	100%	100%	100%	100%	100%	15%	100%	100%	100%	100%	100%	100%	100%	100%	100%	100%	100%	kinase still bound, per cent of control (PAK1 (human)): 100%; kinase still bound, per cent of control (PDGFRB (human)): 0%; kinase still bound, per cent of control (PHKG1 (human)): 100%; kinase still bound, per cent of control (PLK4 (human)): 100%; kinase still bound, per cent of control (PRKAA1 (human)): 100%; kinase still bound, per cent of control (PRKCE (human)): 100%; kinase still bound, per cent of control (PRKCH (human)): 100%; kinase still bound, per cent of control (PRKD1 (human)): 100%; kinase still bound, per cent of control (RPS6KA1 KD1 (human)): 100%; kinase still bound, per cent of control (STK16 (human)): 100%; kinase still bound, per cent of control (STK35 (human)): 100%; kinase still bound, per cent of control (STK38 (human)): 100%; kinase still bound, per cent of control (TLK2 (human)): 100%; kinase still bound, per cent of control (TNNI3K (human)): 29%; kinase still bound, per cent of control (TTK (human)): 100%; kinase still bound, per cent of control (TXK (human)): 12%
CCOc1cc(N2CCC(O)CC2)ccc1Nc1ncc2c(n1)N(C)c1ccccc1C(=O)N2C	100%	100%	100%	100%	100%	100%	100%	100%	100%	100%	100%	100%	100%	100%	100%	100%	100%	100%	100%	100%	kinase still bound, per cent of control (PAK1 (human)): 100%; kinase still bound, per cent of control (PDGFRB (human)): 100%; kinase still bound, per cent of control (PHKG1 (human)): 100%; kinase still bound, per cent of control (PLK4 (human)): 2.8%; kinase still bound, per cent of control (PRKAA1 (human)): 100%; kinase still bound, per cent of control (PRKCE (human)): 100%; kinase still bound, per cent of control (PRKCH (human)): 100%; kinase still bound, per cent of control (PRKD1 (human)): 100%; kinase still bound, per cent of control (RPS6KA1 KD1 (human)): 100%; kinase still bound, per cent of control (STK16 (human)): 100%; kinase still bound, per cent of control (STK35 (human)): 100%; kinase still bound, per cent of control (STK38 (human)): 100%; kinase still bound, per cent of control (TLK2 (human)): 100%; kinase still bound, per cent of control (TNNI3K (human)): 100%; kinase still bound, per cent of control (TTK (human)): 19%; kinase still bound, per cent of control (TXK (human)): 100%
CCCS(=O)(=O)Nc1ccc(F)c(C(=O)c2c[nH]c3ncc(Cl)cc23)c1F	92%	100%	55%	99%	96%	56%	86%	80%	15%	50%	100%	14%	31%	100%	100%	87%	52%	100%	74%	35%	kinase still bound, per cent of control [4]: 38%; kinase still bound, per cent of control (NEK3 (human)): 69%; kinase still bound, per cent of control (NEK4 (human)): 71%; kinase still bound, per cent of control (PAK1 (human)): 11%; kinase still bound, per cent of control (PDGFRB (human)): 0%; kinase still bound, per cent of control (PHKG1 (human)): 100%; kinase still bound, per cent of control (PLK4 (human)): 27%; kinase still bound, per cent of control (PRKAA1 (human)): 64%; kinase still bound, per cent of control (PRKCE (human)): 100%; kinase still bound, per cent of control (PRKCH (human)): 100%; kinase still bound, per cent of control (PRKD1 (human)): 31%; kinase still bound, per cent of control (RPS6KA1 KD1 (human)): 71%; kinase still bound, per cent of control (STK16 (human)): 18%; kinase still bound, per cent of control (STK35 (human)): 100%; kinase still bound, per cent of control (STK38 (human)): 78%; kinase still bound, per cent of control (TLK2 (human)): 75%; kinase still bound, per cent of control (TNNI3K (human)): 75%; kinase still bound, per cent of control (TTK (human)): 60%; kinase still bound, per cent of control (TXK (human)): 69%

— the kinase profiling compilation of Christmann-Franck et al. (2016)
